In patent US12012467B2, “Small molecule DCN1 inhibitors and therapeutic methods using the same” (THE REGENTS OF THE UNIVERSITY OF MICHIGAN, priority 2017, dated 2024) one finds IC50 data, which are given here for 33 molecules.

Square brackets hold non-standard residues; d marks the D form. Peptide text beside a SMILES is read from it. * marks the point of attachment. Ala(6-iPr-benzothiazol-2-yl) = CC(C)c1ccc2nc(C[C@H](N)C(=O)O)sc2c1; 2Nal = N[C@@H](Cc1ccc2ccccc2c1)C(=O)O; tBuAla = CC(C)(C)C[C@H](N)C(=O)O; dLac = C[C@@H](O)C(=O)O; Propionyl = CCC(=O)*; Moc = COC(=O)*

DCN1, sequence (Q96GG9 58-259): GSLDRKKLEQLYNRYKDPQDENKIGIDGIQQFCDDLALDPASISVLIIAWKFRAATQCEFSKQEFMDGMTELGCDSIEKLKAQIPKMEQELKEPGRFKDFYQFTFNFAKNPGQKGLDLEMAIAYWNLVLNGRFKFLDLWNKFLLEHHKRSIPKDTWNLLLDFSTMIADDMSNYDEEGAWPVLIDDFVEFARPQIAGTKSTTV

The first assay addresses DCN1 (Homo sapiens (Human), UniProt Q96GG9). Put plainly: Competitive FP binding assay. Conditions: bounds given in μM; read-out: Binding affinity to DCN1 (IC50). As for the experimental part:
Competitive FP Binding Assay
The Fluorescence Polarization (FP) competitive binding assays were performed to accurately determine the binding affinities of our DCN1 inhibitors. […] Serial dilutions of proteins were mixed with 46 to a final volume of 200 μl in the assay buffer (100 mM phosphate buffer, pH=6.5, with 0.02% Tween-20 and 2% DMSO). Final probe concentration was 5 nM for both assays. Plates were incubated at room temperature for 30 minutes with gentle shaking to assure equilibrium.
Pure proteins were derived from the same expression and purification protocols. Plasmids were transformed into Rosetta2 cells, the cells were grown in Terrific Broth at 37° C. to an O.D.600>1.0 and induced with 0.4 mM Isopropyl (3-D-1-thiogalactopyranoside overnight at 20° C. The pelleted cells were resuspended in lysis buffer containing 25 mM Tris-HCl, pH 7.5, 200 mM NaCl and protease inhibitors, sonicated and centrifuged at 34,000×g for 45 minutes to remove debris. Cleared lysate was incubated with Ni-NTA resin (Qiagen) prewashed with lysis buffer, for 1 hr at 4° C. The matrix was loaded into a column then washed with 25 mM Tris-HCl, pH 7.5, 200 mM NaCl and 10 mM imidazole. Protein was eluted with 25 mM Tris-HCl, pH 7.5, 200 mM NaCl and 300 mM imidazole, concentrated and applied to a Superdex 75 (GE Healthcare) column pre-equilibrated with 25 mM Tris pH 7.5, 200 mM NaCl and 1 mM DTT. For DCN2-5, the N-terminal His6 tag was removed prior to gel filtration. Tag removal was achieved through incubation with TEV protease during overnight dialysis against 25 mM Tris pH 7.5, 200 mM NaCl and 1 mM DTT and a second Ni-NTA column. DCN2-5 proteins were stored at −80° C. in 1 mg/mL fractions containing 5% glycerol. The uncleaved DCN1 protein was stored at −80° C. without glycerol.
`CCC(=O)N[C@@H](Cc1nc(C)c(-c2ccc([N+](=O)[O-])cc2)s1)C(=O)N[C@H](CN)Cc1ccccc1` [Example 106]: the IC50 was over 10 µM.

Turning to `CCC(=O)N[C@@H](Cc1nc(C)c(-c2ccccn2)s1)C(=O)N[C@H](CN)Cc1ccccc1` [Example 228], the half-inhibitory concentration (IC50) is over 10 µM.

Take `CCC(=O)N[C@H](CN)Cc1nc2ccc(C(C)C)cc2s1` [Example 109]: the IC50 was over 10 µM.

On to `CCC(=O)N[C@@H](Cc1nc2ccc(Cl)cc2s1)C(=O)N[C@@H](C[C@H]1CC[C@H](CNC(=O)COCCOCCOCCNC(=O)CCCC[C@@H]2SC[C@@H]3NC(=O)N[C@@H]32)CC1)C(=O)N[C@@H](CCCCN(C)C)C(=O)N[C@@H]1CCOc2ccccc21` [DI-427biotin (NC)], for which the IC50 was over 10 µM.

`CC[C@H](C)[C@H](NC(=O)[C@H](Cc1ccc2ccccc2c1)NC(=O)OC)C(=O)N[C@@H](CCCCN)C(=O)N[C@@H](CC(C)C)C(N)=O` [Example 170] (Moc-[2Nal]IKL-NH2): the IC50 was over 10 µM.

As to `CC[C@H](C)[C@H](NC(=O)[C@H](Cc1ccc2ccccc2c1)NC(=O)[C@@H](C)O)C(=O)N[C@@H](CCCCN)C(=O)N[C@@H](CC(C)C)C(N)=O` [Example 167] (H-[dLac][2Nal]IKL-NH2), the IC50 was over 10 µM.

On to `CC[C@H](C)[C@@H](CN)NC(=O)[C@@H](N)Cc1nc2ccc(C(C)C)cc2s1` [Example 49, (S)-2-amino-N-((2S,3S)-1-amino-3-methylpentan-2-yl)-3-(6-isopropylbenzo[d]thiazol-2-yl)propanamide], for which the IC50 was over 10 µM.

Regarding `CCC(=O)N[C@H](Cc1nc2ccc(Cl)cc2s1)C(=O)N[C@@H](C[C@H]1CC[C@H](CN)CC1)C(=O)N[C@@H](CCCCN)C(=O)N[C@@H]1CCOc2ccccc21` [Example 201], the IC50 was over 10 µM.

As for `CCC(=O)N[C@@H](Cc1nc2ccc(C(C)C)cc2s1)C(=O)N[C@@H](CN)Cc1ccccc1` (stereo in doubt) [Example 91], the IC50 was over 10 µM.

On to `CCC(=O)N[C@@H](Cc1nc(CC)c(-c2ccccc2)s1)C(=O)N[C@H](CN)Cc1ccccc1` [Example 225], for which the IC50 was over 3 µM.

Staying with this assay, now noted: read-out: Binding affinity to DCN1 (IC50 (nM)).
On to `CCC(=O)N[C@@H](Cc1nc2ccc(Cl)cc2s1)C(=O)N[C@H](C(=O)N[C@@H](CC1CCNCC1)C(=O)N[C@@H]1CCOc2ccccc21)C1CCOCC1` [Example 41], for which the IC50 worked out at 0.222 µM.

As for `CCC(=O)N[C@@H](Cc1nc2ccc(Cl)cc2s1)C(=O)N[C@H](C(=O)N[C@@H](CCCCN)C(=O)NC(c1ccccn1)c1ccccn1)C1CCOCC1` [244 & 245], the IC50 turned out to be 0.297 µM.

Regarding `CCC(=O)N[C@@H](Cc1nc2ccc(C(C)C)cc2s1)C(=O)N[C@H](CN(C)C)C1CCCCC1` [Example 79, (S)—N—((S)-1-cyclohexyl-2-(dimethylamino)ethyl)-3-(6-isopropylbenzo[d]thiazol-2-yl)-2-propionamidopropanamide], the concentration for half-maximal inhibition (IC50) amounted to 0.0936 µM.

Turning to `CCC(=O)N[C@@H](Cc1nc(C)c(-c2cccc(Cl)c2)s1)C(=O)N[C@H](CN)Cc1ccccc1` [Example 103], the IC50 worked out at 0.264 µM.

Turning to `CCC(=O)N[C@@H](Cc1nc2ccc(C(C)C)cc2s1)C(=O)N[C@@H](CC(C)(C)C)C(=O)N[C@@H](CCCCN)C(=O)N[C@@H](CC(C)C)C(N)=O` [Example 283] (Propionyl-[Ala(6-iPr-benzothiazol-2-yl)][tBuAla]KL-NH2), the IC50 stood at 0.083 µM.

Take `CCC(=O)N[C@H](CNC(=O)C1(N)CCC1)Cc1nc2ccc(C(C)C)cc2s1` [Example 113]: the IC50 came out at 4.11 µM.

Take `CCC(=O)N[C@@H](Cc1nc2ccc(Cl)cc2s1)C(=O)N[C@H](C(=O)N[C@@H](CCCCN)C(=O)N[C@H]1CNCc2ccccc21)C1CCCC1` [Example 162]: the IC50 stood at 0.797 µM.

Turning to `CCC(=O)N[C@@H](Cc1nc2ccc(CC)cc2s1)C(=O)N[C@H](C(=O)N[C@@H](CCCCN)C(=O)N[C@@H]1CNCc2ccccc21)C1CCCC1` [Example 177], the IC50 stood at 0.079 µM.

For `CCC(=O)N[C@@H](Cc1nc2ccc(C)cc2s1)C(=O)N[C@@H](Cc1cccnc1)C(=O)N[C@@H](CCCCN)C(=O)N[C@@H]1CCOc2ccccc21` [Example 183], the 50% inhibitory concentration (IC50) is 0.165 µM.

For the molecule `CC[C@H](C)[C@H](NC(=O)[C@H](Cc1nc2ccc(C(C)C)cc2s1)NC(C)=O)C(=O)N[C@@H](CCCCN)C(=O)N[C@@H](CC(C)C)C(N)=O` [Example 5, (S)-2-((2S,3 S)-2-((S)-2-acetamido-3-(6-isopropylbenzo[d]thiazol-2-yl)propanamido)-3-methylpentanamido)-6-amino-N—((S)-1-amino-4-methyl-1-oxopentan-2-yl)hexanamide] (Ac-[Ala(6-iPr-benzothiazol-2-yl)]IKL-NH2), the IC50 amounted to 0.0401 µM.

With `CCC(=O)N[C@@H](Cc1cn2cc(C(C)C)ccc2n1)C(=O)N[C@H](C(=O)N[C@@H](CCCCN)C(=O)N[C@@H]1CCOc2ccccc21)C1CCOCC1` [210 & 211], the IC50 was 0.0812 µM.

As for `CCC(=O)N[C@H](CNC(=O)Cc1ccccc1)Cc1nc2ccc(Cl)cc2s1` [Example 253], the IC50 was found to be 1.2 µM.

Consider `CCC(=O)N[C@@H](Cc1nc2ccc(C(C)C)cc2s1)C(=O)N[C@H](CNC(=O)CCN1CCOCC1)Cc1ccccc1` [Example 93], for which the IC50 is 0.0899 µM.

As to `CCC(=O)N[C@H](CNC(=O)[C@@H](N)C1CCCC1)Cc1nc2ccc(Cl)cc2s1` [Example 260], the IC50 came out at 1.2 µM.

With `CCC(=O)N[C@@H](Cc1nc2ccc(C(C)C)cc2s1)C(=O)N[C@H](CN)Cc1ccccc1` [Example 55, (S)—N—((S)-1-amino-3-phenylpropan-2-yl)-3-(6-isopropylbenzo[d]thiazol-2-yl)-2-propionamidopropanamide], the IC50 turned out to be 0.179 µM.

As for `CCC(=O)N[C@@H](Cc1ccc2ccccc2c1)C(=O)N[C@@H](CC(C)(C)C)C(=O)N[C@@H](CCCCN)C(=O)NC(c1ccccc1)c1ccccc1` [Example 22], the IC50 was found to be 0.361 µM.

Regarding `CCC(=O)N[C@@H](Cc1ccc2ccccc2c1)C(=O)N[C@H](C(=O)N[C@@H](CCCCN)C(=O)N[C@@H]1CCc2ccccc21)[C@@H](C)CC` [Example 13], the IC50 amounted to 0.913 µM.

For the molecule `CCC(=O)N[C@@H](Cc1ccc2ccccc2c1)C(=O)N[C@H](C(=O)N[C@@H](CCCCN(C)C)C(=O)NC(c1ccccc1)c1ccccc1)C1CCCC1` [Example 146], the IC50 stood at 0.464 µM.

In the case of `CCC(=O)N[C@H](CNC(=O)C1(N)CCCCCC1)Cc1nc2ccc(C(C)C)cc2s1` [Example 115], the concentration for half-maximal inhibition (IC50) is 2.39 µM.

Turning to `CCC(=O)N[C@@H](Cc1nc2ccc(C)cc2o1)C(=O)N[C@H](C(=O)N[C@@H](CCCCN)C(=O)N[C@@H]1CCOc2ccccc21)C1CCOCC1` [Example 194], the IC50 amounted to 0.0938 µM.

In the case of `CCC(=O)N[C@@H](Cc1nc2ccc(C(C)C)cc2s1)C(=O)N[C@H](CNC(=O)C1CCNCC1)C1CCCCC1` [Example 62, N—((S)-2-cyclohexyl-2-((S)-3-(6-isopropylbenzo[d]thiazol-2-yl)-2-propionamidopropanamido)ethyl)piperidine-4-carboxamide], the IC50 is 0.0259 µM.

With `CCC(=O)N[C@@H](Cc1nc2ccc(Cl)cc2s1)C(=O)N[C@H](C(=O)N[C@@H](CCCCN)C(=O)N[C@@H]1CCCc2ccccc21)C1CCCC1` [Example 32], the IC50 is 0.157 µM.

As for `CCC(=O)N[C@@H](Cc1ccc2ccccc2c1)C(=O)N[C@@H](CC1CCCCC1)C(=O)N[C@@H](CCCCN)C(=O)NC(c1ccccc1)c1ccccc1` [Example 21], the IC50 was 0.29 µM.

Usually IC50 stands for the point on the concentration scale where inhibition reaches its midpoint.
